From US20160222122A1, “INTEGRIN-MODULATING THERAPIES FOR TREATING FIBROTIC DISEASE” (The Johns Hopkins University, priority 2013, published 2016)
“Also recorded” adds a separate entry of the source.

Experiments:
SSc fibroblasts [1] = experiment: qPCR of miR-29a and collagen mRNAs in cultured SSc fibroblasts; assay type: cell-based, human; conditions: inhibitors SD208 (1 μM), U0126 (10 μM)
Experimental: Primary human dermal fibroblasts (HDFs) were derived from skin biopsies from 5 patients with active diffuse systemic sclerosis and 6 healthy controls. Biopsies were taken from the forearm and cultured as previously described. All experiments were performed in cell lines at low (<5) passage. Primary mouse embryonic fibroblasts (MEFs) were derived from E13.5 embryos as described previously. Murine plasmacytoid dendritic cells (pDCs) were isolated from the spleens of wild-type C57B16/J mice using the Plasmacytoid Dendritic Cell Isolation Kit II (cat#130-092-786, Miltenyi Biotec) and a midiMACS™ Separator (cat#130-042-302, Miltenyi Biotec) according to the manufacturer's instructions. The pDC-containing cell suspensions routinely had greater than 95% purity, as detected by flow cytometry.
(§1) All cells were counted at splitting and all treatments were performed at 70% confluency. Cells were serum starved 48 hours prior to stimulation with 2 ng/mL recombinant TGFβ1 (cat#240-B-010, R&D). When TGFβ1 or vehicle was added, cell culture dishes were immediately rocked on the same rocker three times at 5% CO2, 37° to control for mechanical MAPK activation. Before lysate harvest, cells were washed with pre-warmed (42°) 1×PBS (Gibco®). All antibody treatments of human fibroblasts were added during starvation 48 hours before TGFβ1 stimulation while inhibitors SD208 (1 μM) and UO126 (10 μM) (cat#s 616456 and 662005, EMD Millipore) were added 6 hours prior to stimulation. Antibodies used in vitro were mouse IgG1 (0.2 mg/mL, Clone P3.6.2.8.1, cat#16-4714-81, eBiosciences), IgG2a (0.2 mg/mL, Clone eBM2a, cat#16-4724, eBiosciences), αvβ3-blocking (30 μg/mL, Clone LM609, cat#MAB1976Z, Millipore), β1-activating (7 μg/mL, Clone TS2/16, cat#14-0299, eBiosciences), and β1-blocking (0.2 mg/mL, Clone P4C10, cat#MAB1987Z, Millipore) antibodies.
Total RNA was isolated from cultured cells or tissue using Trizol (Invitrogen) according to the manufacturer's protocol. Quantitative PCR for miR-29a and 18S rRNA was performed using pre-designed Taqman primers and probes (ABI) according to manufacturer's instructions. Relative quantification for each transcript was obtained by normalizing against 18S transcript abundance according to the formula 2^−Ct/2^−Ct(18S).

[2] = system: Fbn1D1545E/+ and Fbn1W1572C/+ mice (SSS mouse models); experiment: In vivo drug treatment of SSS mouse models: clinical stiffness score and stretched skin area/total surface area ratio; conditions: RDEA119 25 mg/kg twice daily by oral gavage, 8 weeks from 1 month of age
Experimental: (§2) All antibodies used to treat mice or cells were azide-free. Male mice were treated with β1 integrin activating antibody (β1aAb, Rat Clone 9EG7, BD Biosciences, special-ordered >98% pure and azide-free) or an isotype-matched control (Rat IgG2a, κ, special-ordered >98% pure and azide-free, BD Biosciences) by intraperitoneal injection at 2 mg/kg every five days for twelve weeks, beginning at one month of age. Complete blood cell counts were performed to exclude pancytopenia in β1aAb-treated animals (FIG. 20A). For the TGFβ-Neutralizing trial, three-month-old male mice were treated with pan-specific TGFβ-Neutralizing antibody (Mouse Clone 1D11, catalog #MAB1835, R&D) or an isotype control (Mouse IgG1, Clone 11711, cat#MAB002, R&D) by intraperitoneal injection at 10 mg/kg every other day for twelve weeks.
RDEA119 was generously provided by Craig J. Thomas, Samarjit Patnaik, and Juan J. Marugan (National Institutes of Health Chemical Genomics Center, Rockville, Md., USA). RDEA119 was reconstituted in 10% 2-hydroxypropyl-betacyclodextrin (Sigma-Aldrich) dissolved in PBS, and administered twice daily by oral gavage at a dose of 25 mg/kg. […]
A clinical stiffness score was assigned by five blinded observers. […] Mice were assessed in random order. […] Early in the course of studies, the same mice were assessed by the same observer on a different day. […]

[3] = system: Fbn1D1545E/+ and Fbn1W1572C/+ mice (SSS mouse models); experiment: Histology (Masson's trichrome) and immunofluorescence of back skin of treated SSS mice; assay type: in vivo; conditions: RDEA119 25 mg/kg twice daily oral gavage, 8 weeks
Experimental: as §2
RDEA119 was generously provided by Craig J. Thomas, Samarjit Patnaik, and Juan J. Marugan (National Institutes of Health Chemical Genomics Center, Rockville, Md., USA). […]
For tissue analysis, animals were euthanized through inhalational halothane (Sigma) or anesthetized with isofluorane. […] Dermal and subcutaneous fat thickness was measured using high-powered fields as described previously. […] Active αvβ3 was detected using the WOW-1 antibody (a gift from Dr. Sanford Shattil) and an anti-mouse Alexa Fluor-594 F(ab′)2 fragment secondary (Invitrogen cat#A11020). […]

SSc fibroblasts [4] = experiment: In vitro TGFβ1 stimulation of SSc dermal fibroblasts, Western blotting of pSMAD3 and pERK1/2; assay type: cell-based, human
Experimental: as §1
Before lysate harvest, cells were washed with pre-warmed ([…]) 1×PBS (Gibco®). […] The relative intensities were measured using LiCor Odyssey software. […]

[5] = molecular target: T1, integrin αvβ3 in its active conformation (Homo sapiens, UniProt P05106+P06756); experiment: Specificity of WOW-1 antibody for active integrin αvβ3 in control fibroblasts by flow cytometry; assay type: cell-based; conditions: 10 mM EDTA, 2 mM MnCl2
T1 construct: endogenous in cells; host or cells: control fibroblasts (read as primary human dermal fibroblasts from healthy controls)
Experimental: For histograms, FlowJo software divides all events into 256 “bins,” which are numerical ranges for the parameter on the x-axis. The percent of maximum (yaxis) is the number of cells in each bin divided by the number of cells in the bin that contains the largest number of cells. Gating for live cells was based on staining with the LIVE/DEAD® Fixable Dead Cell Stain Kit (Invitrogen, cat#L34955). All staining was performed with fluorophore-conjugated primary and isotype control antibodies. All antibodies were either purchased as fluorochrome conjugates or conjugated via amine-based Alexa Fluor antibody labeling kits (cat#A-20181, A20187, A-20185, A-20186, Invitrogen). Mouse and human active αvβ3 was detected fluorophore-conjugated WOW-1 antibody (a gift from Dr. Sanford Shattil). 10 mM Ethylenediaminetetraacetic acid (EDTA) and 2 mM MnCl2 were used as negative and positive controls for αvβ3 activation in flow cytometry experiments (FIG. 20B). Integrin αvβ5, a subtype known to react with the WOW-1 antibody, was monitored in mouse and human cells with a specific antibody (cat#LS-C36943, Lifespan Biosciences).

T1 sequence (P06756 31-889 limits assumed): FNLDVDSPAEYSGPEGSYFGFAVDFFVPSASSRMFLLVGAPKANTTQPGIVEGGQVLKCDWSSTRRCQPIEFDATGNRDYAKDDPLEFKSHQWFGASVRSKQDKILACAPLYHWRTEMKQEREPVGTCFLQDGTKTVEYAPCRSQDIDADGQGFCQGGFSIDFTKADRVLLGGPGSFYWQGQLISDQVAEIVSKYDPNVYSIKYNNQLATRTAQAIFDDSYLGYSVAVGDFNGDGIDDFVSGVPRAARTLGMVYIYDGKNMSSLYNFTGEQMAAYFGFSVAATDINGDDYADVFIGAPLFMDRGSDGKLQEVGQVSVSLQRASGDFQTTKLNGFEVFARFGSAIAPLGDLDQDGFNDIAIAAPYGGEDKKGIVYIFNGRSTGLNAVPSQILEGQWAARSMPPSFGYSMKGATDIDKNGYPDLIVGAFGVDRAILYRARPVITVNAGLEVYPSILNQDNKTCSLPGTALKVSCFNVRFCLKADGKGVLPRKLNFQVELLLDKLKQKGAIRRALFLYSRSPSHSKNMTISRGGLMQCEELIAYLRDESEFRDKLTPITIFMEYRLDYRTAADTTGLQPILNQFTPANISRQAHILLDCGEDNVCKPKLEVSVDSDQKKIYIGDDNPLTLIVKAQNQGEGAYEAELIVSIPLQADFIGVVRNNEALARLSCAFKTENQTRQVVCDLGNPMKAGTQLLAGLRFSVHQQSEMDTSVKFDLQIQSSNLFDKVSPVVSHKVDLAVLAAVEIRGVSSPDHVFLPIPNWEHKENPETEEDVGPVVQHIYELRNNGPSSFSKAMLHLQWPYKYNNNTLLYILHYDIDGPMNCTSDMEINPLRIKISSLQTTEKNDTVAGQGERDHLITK
T1 sequence (P06756 891-1048 partner limits assumed): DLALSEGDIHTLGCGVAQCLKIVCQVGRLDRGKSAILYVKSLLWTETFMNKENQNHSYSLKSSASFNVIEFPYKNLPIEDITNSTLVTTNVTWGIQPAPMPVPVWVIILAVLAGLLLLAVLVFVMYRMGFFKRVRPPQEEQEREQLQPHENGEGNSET
T1 sequence (P05106 27-788): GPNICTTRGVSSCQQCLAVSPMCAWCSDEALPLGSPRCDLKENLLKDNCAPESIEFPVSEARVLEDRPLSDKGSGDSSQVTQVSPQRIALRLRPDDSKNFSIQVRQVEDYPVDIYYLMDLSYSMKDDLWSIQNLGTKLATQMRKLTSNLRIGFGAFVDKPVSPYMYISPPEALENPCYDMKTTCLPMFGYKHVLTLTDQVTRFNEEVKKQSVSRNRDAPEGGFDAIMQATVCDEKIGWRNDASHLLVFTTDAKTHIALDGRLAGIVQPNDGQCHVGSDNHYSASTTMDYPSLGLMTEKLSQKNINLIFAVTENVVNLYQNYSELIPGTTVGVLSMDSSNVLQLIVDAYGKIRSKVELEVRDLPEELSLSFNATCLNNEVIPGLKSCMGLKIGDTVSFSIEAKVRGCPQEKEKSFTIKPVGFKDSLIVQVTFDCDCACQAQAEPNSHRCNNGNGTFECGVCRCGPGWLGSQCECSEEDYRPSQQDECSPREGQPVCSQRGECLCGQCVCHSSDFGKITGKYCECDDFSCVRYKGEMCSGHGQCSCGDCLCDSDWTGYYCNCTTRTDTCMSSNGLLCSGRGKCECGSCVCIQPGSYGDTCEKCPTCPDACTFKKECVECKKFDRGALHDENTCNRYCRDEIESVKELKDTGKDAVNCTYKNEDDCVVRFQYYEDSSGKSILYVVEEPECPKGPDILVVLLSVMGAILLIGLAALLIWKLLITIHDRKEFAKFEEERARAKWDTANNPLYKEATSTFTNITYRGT

| Compound | expression of miR-29a (SSc fibroblasts [1]) | expression of type IA2 and III collagen genes (SSc fibroblasts [1]) | WOW-1 immunoreactivity [5] | other results |
| --- | --- | --- | --- | --- |
| N#CC(=C(/N)Sc1ccccc1N)/C(C#N)=C(\N)Sc1ccccc1N [U0126] | increased miR-29a levels; also recorded: increases miR-29a expression | reduced collagen expression; also recorded: reduces type IA2 and III collagen expression |  |  |
| COc1cc(F)c(F)c(Nc2ccc(I)cc2F)c1NS(=O)(=O)C1(C[C@H](O)CO)CC1 [RDEA119] |  |  |  | skin stiffness [2]: prevents skin stiffness; dermal collagen accumulation [3]: prevents; loss of subcutaneous fat [3]: prevents |
| Fc1ccc(Cl)cc1-c1nc(Nc2ccncc2)c2nccnc2n1 [SD208] | increased expression of miR-29a, this finding did not reach significance; also recorded: normalized | normalized |  | ERK1/2 activation (pERK1/2) in response to TGFβ1 (SSc fibroblasts [4]; 2 ng/mL TGFβ1, 5 minutes, antibodies added 48 hours before, SD208 1 μM 6 hours prior): inhibited; also recorded: sensitive; Smad3 phosphorylation (pSMAD3) in response to TGFβ1 (SSc fibroblasts [4]; 2 ng/mL TGFβ1, SD208 1 μM 6 hours prior): sensitive |
| O=C(O)CN(CCN(CC(=O)O)CC(=O)O)CC(=O)O [EDTA, Ethylenediaminetetraacetic acid] |  |  | reduced immunoreactivity |  |
| [Cl][Mn][Cl] [MnCl2] |  |  | increased immunoreactivity |  |
